Test results taken from patent US11832638B2, “N-acyl derivatives of gamma amino-butyric acid and beta alanine as food flavouring compounds” (GIVAUDAN SA, priority 2012, dated 2023).

What was measured:
[1] = Tasting in pilaf (cooked rice with flavoured butter); conditions: standard cooked rice with 10% of the C18:2-gaba flavoured butter
Protocol: (§1) The following formulations were prepared and tasted by trained panelists.

Test on Eru Prestige = conditions: 0.5 ppm
[2] = Tasting in standard chicken bouillon base; conditions: 0.5 PPM in standard chicken bouillon base, 0.7% salt, 0.5% fat
Protocol: as §1
Standard Chicken bouillon base, 0.7% salt, 0.5% fat

[3] = Yoghurt cream flavoured non-sweetened, different fat levels; conditions: 2 ppm, cream flavour 0.03%
Protocol: Yoghurt Cream Flavoured Non-sweetened And Different Fat Levels
In a Yoghurt containing 0% 1.5% and 3% fat, flavoured with proprietary cream flavour dosed at 0.03%, C18:2-gaba was added at 2 ppm. Samples were evaluated by expert tasters. Tasters were asked to describe the samples focusing on authentic taste, mouthfeel, fullness, salivation, sweetness, juiciness, richness, long lastingness and fattiness.

[4] = Mango flavoured still beverage with different levels of juice; conditions: 1 ppm, 8% sucrose, 0.1% citric acid, mango flavor 0.05%
Protocol: Mango Flavoured Still Beverage Containing Different Levels Of Juice.
In a Mango flavoured still beverage, sweetened with 8% sucrose and containing 0.1% citric acid and 1%, 4% and 6% clear mango juice flavoured with a proprietary Mango flavour @ 0.05%, C18:2-gaba was added, as such.
All samples were evaluated by expert tasters. Tasters were asked to describe the samples focusing on authentic taste, juicy mouthfeel, enhancement, richness, juiciness, long lastingness, salivation, sweetness.
In a Mango flavoured still beverage, sweetened with 8% sucrose & containing 0.1% citric acid and 1% clear mango juice flavoured with proprietary Mango flavour @ 0.05%, C18:2-gaba was added, as such.
Base is water, 8% sucrose, 0.1% citric acid, 1% clear mango juice (very low juice %) , flavoured with Mango flavor, dosed at 0.05%
In a Mango flavoured still beverage, sweetened with 8% sucrose & containing 0.1% citric acid and 4% clear mango juice flavoured with Mango flavour @ 0.05% , C18:2-gaba and C18:2-Pro were added, as such (separate) and in combination.
Base is water, 8% sucrose, 0.1% citric acid, 4% clear mango juice (30% reduced juice), flavoured with Mango flavor, dosed at 0.05%
A Mango-flavoured still beverage, sweetened with 8% sucrose & containing 0.1% citric acid and 6% clear mango juice flavoured with Mango flavour @ 0.05%, C18:2-gaba
Base is water, 8% sucrose, 0.1% citric acid, 6% clear mango juice (full juice), flavoured with Mango flavor, dosed at 0.05%.

[5] = Vanilla flavoured milk 3.0% fat; conditions: 2 ppm, 4% sugar, vanillin 10 ppm, vanilla extract 0.03%
Protocol: Vanilla Flavoured Milk 3.0% Fat
In a 3% fat milk drink, sweetened with 4% sucrose by weight, flavoured with Vaniline @ 10 ppm and a Vanilla extract @ 0.03% C18:2-gaba, was added at 0.5 or 2 ppm.
(§2) Samples were evaluated by expert tasters. Tasters were asked to describe the samples focusing on authentic taste, mouthfeel, fullness, salivation, sweetness, juiciness, richness, long lastingness and fattiness.
Base: Milk 3% fat, 4% sugar, vanillin 10 ppm, vanilla extract 0.03%

[6] = Comparison in beef bouillon; conditions: 2 ppm, Maggi beef bouillon 1 tablet in 500 ml hot water
Protocol: Comparison in Beef Bouillon
Base is Maggi beef bouillon 1 tablet in 500 ml of hot water

Test on Heineken beer = conditions: 0.5 ppm
Protocol: In Heineken beer (Market Product) C18:2-gaba was added at 0.5 ppm.
Samples were evaluated by expert tasters. Tasters were asked to describe the samples focusing on authentic taste, alcohol impact, malt taste, hop taste, mouthfeel, fullness, salivation, sweetness, bitterness, richness, long lastingness and fattiness.

Test in vanilla milk = conditions: 2 ppm, milk 0.15% fat, 4% sucrose, Vaniline flavour 10 ppm + vanilla ext. 0.03%
From the text: Base: Milk 0.15% fat, sweetened with 4% sucrose by weight, flavoured with proprietary
Vaniline flavour @ 10 ppm+Vanilla ext. @ 0.03%

[7] = Test on Kikkoman soy sauce low salt; conditions: 0.5 ppm
From the text: Test on Kikkoman Soy Sauce Low Salt
Base is Kikkoman soy sauce

[8] = Test on Tang powdered soft drink; conditions: 0.5 ppm, orange flavoured Tang
Protocol: In an orange flavoured Tang powdered soft drink (market product) sweetened with sucrose plus high intensity sweetener and containing citric acid and C18:2-gaba.
All samples were evaluated by expert tasters. Tasters were asked to describe the samples focusing on authentic taste, mouthfeel & body, enhancement, richness, juiciness, long lastingness, salivation, sweetness, masking off notes of high intensity sweetener
Base is Orange flavoured Tang

[9] = Chocolate milk with different fat content
Protocol: Chocolate Milk With Different Fat Content
In a chocolate milk 1.8% and 3% fat C18:2-gaba was added at 0.5 and 1 ppm.
as §2

[10] = Tasting of chicken filet fried in oil; conditions: 2.0 PPM in 135 gram frying oil (82% fat)
Protocol: Differentiator high temperature 100-250 degrees Celsius in a frying in oil process
C18:2-gaba @ 2.0 PPM in 135 gram frying oil (blue band 82% Fat) 450 gram chicken filet 2 minutes high fire and 5 minutes medium fire.

[11] = Tasting in butter (Blueband halvarine); conditions: 1 ppm in Blueband halvarine 39% fat 0.35% salt
Protocol: as §1
Blueband “halvarine” 39% fat 0.35% salt
C18:2-gaba added at 1 ppm.

Test on Breezer Orange = conditions: 0.5 ppm
Protocol: Samples were evaluated by expert tasters. Tasters were asked to describe the samples focusing on authentic taste, alcohol impact, juiciness, mouthfeel, fullness, salivation, sweetness, bitterness, richness, long lastingness and fattiness.

[12] = Tasting in fried potato snack product with cheese seasoning; conditions: fried potato base 35% fat
Protocol: Snack Product A snack product consisting of a fried potato base, containing 35% fat and flavored with cheese seasoning containing salt, MSG, dairy, organic acids, sugars, and a flavour formulation. The following compounds were added to the snack product at the indicated levels and the tasting results arc reported: […]

SMILES: CCCCC/C=C\C/C=C\CCCCCCCC(=O)NCCCC(=O)O [C18:2-gaba]
- tasting result (trained panelists) [1]: more mouthfeel, with a lingering creamy authentic butter taste
- taste description (Test on Eru Prestige): full salty, much more cheese bite, umami, lingering, long lasting
- tasting result (trained panelists) [2]: Strong, Salty, Umami, mouthfeel
- description by expert tasters ([3]; yoghurt 0% fat): less acdic, slight creamy aftertaste
- description by expert tasters ([3]; yoghurt 1.5% fat): very creamy, thick, nice long lasting, whipped cream note
- description by expert tasters ([3]; yoghurt 3% fat): less acidic, much more creamy, very long lasting creamy aftertaste
- description by expert tasters ([4]; 1% clear mango juice): fatty skin-like, very juicy, authentic mango, much more mouthfeel, long lasting mango taste, mouthfeel is close to the full juice product
- description by expert tasters ([4]; 4% clear mango juice): fatty skin-like, very juicy, authentic mango, long lasting mango taste, more mouthfeel than the full juice product
- description by expert tasters ([4]; 6% clear mango juice (full juice)): fatty skin-like, very thick juicy, authentic mango, long lasting mango taste, rich
- description by expert tasters [5]: beany, fatty, authentic, sweet
- taste description [6]: salty, savoury, full
- description by expert tasters (Test on Heineken beer): more hoppy, more bitter, more malt and stronger alcohol impact
- taste description (Test in vanilla milk): fatty, long lasting authentic vanilla, vanilla bean taste is enhanced
- taste description [7]: much more salty, sweet and long lasting
- description by expert tasters [8]: enhances sweet juicy orange notes, enhanced mouthfeel. Additionally, the off-notes of the high intensity sweetener were suppressed
- description by expert tasters ([9]; 0.5 ppm, chocolate milk 1.8% fat): stronger cocoa note, more chocolate vs cocoa
- description by expert tasters ([9]; 0.5 ppm, chocolate milk 3% fat): very creamy, enhanced cocoa note
- description by expert tasters ([9]; 1 ppm, chocolate milk 1.8% fat): very creamy, chocolate, long-lasting creamy and chocolate taste
- description by expert tasters ([9]; 1 ppm, chocolate milk 3% fat): very creamy, lasting, sweet, almost taste like chocolate ice cream
- taste of the chicken ([10]; 450 gram chicken filet, 2 minutes high fire and 5 minutes medium fire): more juicy, succulent, lingering more white meat
- taste of the frying oil ([10]; after frying chicken filet): more savoury golden brown notes
- tasting result (trained panelists) [11]: more authentic butter taste, with more mouthfeel
- description by expert tasters (Test on Breezer Orange): more alcoholic, sweeter, more juicy orange, less soapy
- tasting result ([12]; 0.5 ppm): increased dairy, cheesy
- tasting result ([12]; 1 ppm): Fatty full, cheesy, cheese crust, long lasting
